Assays:
PHBPU [1] = assay: Post-emergence action against PHBPU; assay type: in vivo, Pharbitis purpurea; conditions: post-emergence, dosage 80 g/ha
Method in brief: (§1)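 Post-emergence foliar spray on greenhouse plants at the one-leaf stage, using wettable-powder or emulsion-concentrate formulations in water (600 to […], plus 0.2% wetting agent). Damage scored by eye roughly 3 weeks later against untreated plants: 0% = like control, 100% = dead.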

SETVI [2] = assay: Post-emergence action against SETVI; assay type: in vivo, Setaria viridis; conditions: post-emergence, dosage 80 g/ha, visual assessment about 3 weeks after treatment vs untreated controls
Method in brief: as §1

VERPE [3] = assay: Pre-emergence action against VERPE; assay type: in vivo, Veronica persica; conditions: Dosage 320 g/ha, pre-emergence
Method in brief: (§2)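 Seeds sown in sandy loam in wood-fiber pots and covered with soil. Greenhouse growth; visual damage scored after 3 weeks versus untreated controls (100% = dead, 0% = like control).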

ABUTH [4] = assay: Pre-emergence action against ABUTH; assay type: in vivo, Abutilon theophrasti; conditions: pre-emergence, dosage 320 g/ha, scored visually after 3 weeks vs untreated controls
Method in brief: as §2

AMARE [5] = assay: Post-emergence action against AMARE; assay type: in vivo, Amaranthus retroflexus; conditions: post-emergence, dosage 80 g/ha, visual assessment about 3 weeks after treatment vs untreated controls
Method in brief: as §1

PHBPU [6] = assay: Pre-emergence action against PHBPU; assay type: in vivo, Pharbitis purpurea; conditions: Dosage 320 g/ha, pre-emergence
Method in brief: as §2

POLCO [7] = assay: Post-emergence action against POLCO; assay type: in vivo, Polygonum convolvulus; conditions: post-emergence, dosage 80 g/ha
Method in brief: as §1

AVEFA [8] = assay: Pre-emergence action against AVEFA; assay type: in vivo, Avena fatua; conditions: dosage 320 g/ha, scored visually after 3 weeks vs untreated controls
Method in brief: as §2

AMARE [9] = assay: Pre-emergence action against AMARE; assay type: in vivo, Amaranthus retroflexus; conditions: pre-emergence, dosage 320 g/ha, scored visually after 3 weeks vs untreated controls
Method in brief: as §2

ECHCG [10] = assay: Post-emergence action against ECHCG; assay type: in vivo, Echinochloa crus-galli; conditions: post-emergence, dosage 80 g/ha, visual assessment about 3 weeks after treatment vs untreated controls
Method in brief: as §1

ALOMY [11] = assay: Pre-emergence action against ALOMY; assay type: in vivo, Alopecurus myosuroides; conditions: dosage 320 g/ha, pre-emergence, scored visually after 3 weeks vs untreated controls, 100% = plants have died, 0% = like control plants
Method in brief: as §2

SETVI [12] = assay: Pre-emergence action against SETVI; assay type: in vivo, Setaria viridis; conditions: pre-emergence, dosage 320 g/ha, scored visually after 3 weeks vs untreated controls
Method in brief: as §2

DIGSA [13] = assay: Pre-emergence action against DIGSA; assay type: in vivo, Digitaria sanguinalis; conditions: dosage 320 g/ha, scored visually after 3 weeks vs untreated controls
Method in brief: as §2

MATIN [14] = assay: Post-emergence action against MATIN; assay type: in vivo, Matricaria inodora; conditions: post-emergence, dosage 80 g/ha, visual assessment about 3 weeks after treatment vs untreated controls
Method in brief: as §1

VERPE [15] = assay: Post-emergence action against VERPE; assay type: in vivo, Veronica persica; conditions: dosage 80 g/ha
Method in brief: as §1

STEME [16] = assay: Pre-emergence action against STEME; assay type: in vivo, Stellaria media; conditions: Dosage 320 g/ha, pre-emergence
Method in brief: as §2

DIGSA [17] = assay: Post-emergence action against DIGSA; assay type: in vivo, Digitaria sanguinalis; conditions: dosage 80 g/ha, visual assessment about 3 weeks after treatment vs untreated controls
Procedure: Seeds of monocotyledonous and dicotyledonous weed and crop plants are laid out in sandy loam soil in wood-fiber pots, covered with soil and cultivated in a greenhouse under good growth conditions. 2 to 3 weeks after sowing, the test plants are treated at the one-leaf stage. The compounds of the invention, formulated in the form of wettable powders (WP) or as emulsion concentrates (EC), are then sprayed onto the green parts of the plants in the form of an aqueous suspension or emulsion at a water application rate equating to […], with addition of 0.2% wetting agent. After the test plants have been left to stand in the greenhouse under optimal growth conditions for about 3 weeks, the action of the preparations is assessed visually in comparison to untreated controls (herbicidal action in percent (%): 100% activity=the plants have died, 0% activity=like control plants). […] At the same time, inventive compounds leave Gramineae crops such as barley, wheat, rye, millet/Sorghum, corn or rice virtually undamaged when applied post-emergence, even at high active ingredient dosages. In addition, some substances are also harmless to dicotyledonous crops such as soya, cotton, oilseed rape, sugar beet or potatoes. Some of the compounds according to the invention have high selectivity and are therefore suitable for controlling unwanted vegetation in agricultural crops by the post-emergence method. The data of Tables B18 to B34 below illustrate, in an exemplary manner, the […] herbicidal action of the compounds according to the invention, the herbicidal activity being stated in percent.

ABUTH [18] = assay: Post-emergence action against ABUTH; assay type: in vivo, Abutilon theophrasti; conditions: post-emergence, dosage 80 g/ha, visual assessment about 3 weeks after treatment vs untreated controls
Method in brief: as §1

VIOTR [19] = assay: Post-emergence action against VIOTR; assay type: in vivo, Viola tricolor; conditions: post-emergence, dosage 80 g/ha
Method in brief: as §1

STEME [20] = assay: Post-emergence action against STEME; assay type: in vivo, Stellaria media; conditions: post-emergence, dosage 80 g/ha
Method in brief: as §1

MATIN [21] = assay: Pre-emergence action against MATIN; assay type: in vivo, Matricaria inodora; conditions: Dosage 320 g/ha, pre-emergence
Method in brief: as §2

VIOTR [22] = assay: Pre-emergence action against VIOTR; assay type: in vivo, Viola tricolor; conditions: Dosage 320 g/ha, pre-emergence
Method in brief: as §2

ALOMY [23] = assay: Post-emergence action against ALOMY; assay type: in vivo, Alopecurus myosuroides; conditions: Dosage 80 g/ha, post-emergence
Method in brief: as §1

LOLRI = assay: Pre-emergence action against LOLRI; assay type: in vivo, Lolium rigidum; conditions: dosage 320 g/ha, scored visually after 3 weeks vs untreated controls
Method in brief: as §2

ECHCG [24] = assay: Pre-emergence action against ECHCG; assay type: in vivo, Echinochloa crus-galli; conditions: pre-emergence, dosage 320 g/ha, scored visually after 3 weeks vs untreated controls
Method in brief: as §2

AVEFA [25] = assay: Post-emergence action against AVEFA; assay type: in vivo, Avena fatua; conditions: post-emergence, dosage 80 g/ha, visual assessment about 3 weeks after treatment vs untreated controls
Method in brief: as §1

POLCO [26] = assay: Pre-emergence action against POLCO; assay type: in vivo, Polygonum convolvulus; conditions: Fallopia convolvulus, 504 h; Dosage 320 g/ha, pre-emergence
Method in brief: as §2

HORMU = assay: Pre-emergence action against HORMU; assay type: in vivo, Hordeum murinum; conditions: Hordeum murinum, 504 h, Dosage 320 g/ha
Method in brief: as §2

Cn1nnnc1NC(=O)c1ccc(C(F)(F)F)c(C(=O)C2CCC2)c1Cl [1-153]
Post-emergence action against PHBPU (PHBPU [1]): 90
Post-emergence action against SETVI (herbicidal action in percent) (SETVI [2]): 100%
Pre-emergence action against VERPE (VERPE [3]): 100%
Pre-emergence action against ABUTH (herbicidal activity) (ABUTH [4]): 100%
Post-emergence action against AMARE (herbicidal action in percent) (AMARE [5]): 100%
Pre-emergence action against PHBPU (PHBPU [6]): 80%
Post-emergence action against POLCO (POLCO [7]): 80
Pre-emergence action against AVEFA (herbicidal activity) (AVEFA [8]): 80%
Pre-emergence action against AMARE (herbicidal activity) (AMARE [9]): 100%
Post-emergence action against ECHCG (herbicidal action in percent) (ECHCG [10]): 90%
Pre-emergence action against ALOMY (herbicidal activity in percent) (ALOMY [11]): 90%
SETVI (Table B8, pre-emergence herbicidal activity) (SETVI [12]): 100%
Pre-emergence action against DIGSA (herbicidal activity) (DIGSA [13]): 100%
Post-emergence action against MATIN (herbicidal action in percent) (MATIN [14]): 100%
Post-emergence action against VERPE (VERPE [15]): 80
Pre-emergence action against STEME (STEME [16]): 100%
Post-emergence action against DIGSA (herbicidal action in percent) (DIGSA [17]): 90%
Post-emergence action against ABUTH (herbicidal action in percent) (ABUTH [18]): 100%
Post-emergence action against VIOTR (VIOTR [19]): 80
Post-emergence action against STEME (STEME [20]): 100
Pre-emergence action against MATIN (MATIN [21]): 100%
Pre-emergence action against VIOTR (VIOTR [22]): 100%
Post-emergence action against ALOMY (ALOMY [23]): 80%
Pre-emergence action against LOLRI (herbicidal activity) (LOLRI): 90%
Pre-emergence action against ECHCG (herbicidal activity) (ECHCG [24]): 90%

Cc1c(C(=O)Nc2nnnn2C)ccc(C(F)(F)F)c1C(=O)CCl [1-22]
Post-emergence action against PHBPU (PHBPU [1]): 90
Post-emergence action against SETVI (herbicidal action in percent) (SETVI [2]): 90%
Pre-emergence action against VERPE (VERPE [3]): 100%
Pre-emergence action against ABUTH (herbicidal activity) (ABUTH [4]): 100%
Post-emergence action against AMARE (herbicidal action in percent) (AMARE [5]): 90%
Pre-emergence action against PHBPU (PHBPU [6]): 90%
Pre-emergence action against AVEFA (herbicidal activity) (AVEFA [8]): 100%
Pre-emergence action against AMARE (herbicidal activity) (AMARE [9]): 100%
Post-emergence action against ECHCG (herbicidal action in percent) (ECHCG [10]): 90%
Pre-emergence action against ALOMY (herbicidal activity in percent) (ALOMY [11]): 90%
SETVI (Table B8, pre-emergence herbicidal activity) (SETVI [12]): 100%
Pre-emergence action against DIGSA (herbicidal activity) (DIGSA [13]): 100%
Post-emergence action against MATIN (herbicidal action in percent) (MATIN [14]): 90%
Post-emergence action against VERPE (VERPE [15]): 80
Pre-emergence action against STEME (STEME [16]): 100%
Post-emergence action against DIGSA (herbicidal action in percent) (DIGSA [17]): 100%
Post-emergence action against AVEFA (herbicidal action in percent) (AVEFA [25]): 90%
Post-emergence action against ABUTH (herbicidal action in percent) (ABUTH [18]): 90%
Post-emergence action against VIOTR (VIOTR [19]): 90
Post-emergence action against STEME (STEME [20]): 90
Pre-emergence action against MATIN (MATIN [21]): 100%
Pre-emergence action against VIOTR (VIOTR [22]): 100%
Post-emergence action against ALOMY (ALOMY [23]): 90%
Pre-emergence action against LOLRI (herbicidal activity) (LOLRI): 100%
Pre-emergence action against ECHCG (herbicidal activity) (ECHCG [24]): 100%

CC(=O)C(=O)c1c(C(F)(F)F)ccc(C(=O)Nc2nnnn2C)c1Cl [1-146]
pest or weed control at 80 g/ha (PHBPU [1]; Ipomoea purpurea, 504 h): 80%
pest or weed control at 80 g/ha (SETVI [2]; Setaria viridis, 504 h, read-out: Post-emergence action against SETVI (herbicidal action in percent)): 100%
pest or weed control at 320 g/ha (VERPE [3]; Veronica persica, 504 h): 90%
pest or weed control at 320 g/ha (POLCO [26]): 80%
pest or weed control at 320 g/ha (ABUTH [4]; Abutilon theophrasti, 504 h, read-out: Pre-emergence action against ABUTH (herbicidal activity)): 100%
pest or weed control at 80 g/ha (AMARE [5]; Amaranthus retroflexus, 504 h, read-out: Post-emergence action against AMARE (herbicidal action in percent)): 100%
pest or weed control at 320 g/ha (PHBPU [6]; Ipomoea purpurea, 504 h): 90%
pest or weed control at 320 g/ha (AVEFA [8]; Avena fatua, 504 h, read-out: Pre-emergence action against AVEFA (herbicidal activity)): 90%
pest or weed control at 320 g/ha (AMARE [9]; Amaranthus retroflexus, 504 h, read-out: Pre-emergence action against AMARE (herbicidal activity)): 100%
pest or weed control at 80 g/ha (ECHCG [10]; Echinochloa crus-galli, 504 h, read-out: Post-emergence action against ECHCG (herbicidal action in percent)): 100%
pest or weed control at 320 g/ha (ALOMY [11]; Alopecurus myosuroides, 504 h, read-out: Pre-emergence action against ALOMY (herbicidal activity in percent)): 90%
pest or weed control at 320 g/ha (SETVI [12]; Setaria viridis, 504 h, read-out: SETVI (Table B8, pre-emergence herbicidal activity)): 100%
Pre-emergence action against DIGSA (herbicidal activity) (DIGSA [13]): 100%
pest or weed control at 80 g/ha (MATIN [14]; Tripleurospermum inodorum, 504 h, read-out: Post-emergence action against MATIN (herbicidal action in percent)): 90%
pest or weed control at 80 g/ha (VERPE [15]; Veronica persica, 504 h): 90%
pest or weed control at 320 g/ha (STEME [16]; Stellaria media, 504 h): 100%
Post-emergence action against DIGSA (herbicidal action in percent) (DIGSA [17]): 80%
pest or weed control at 80 g/ha (ABUTH [18]; Abutilon theophrasti, 504 h, read-out: Post-emergence action against ABUTH (herbicidal action in percent)): 100%
pest or weed control at 80 g/ha (VIOTR [19]; Viola tricolor, 504 h): 90%
pest or weed control at 80 g/ha (STEME [20]; Stellaria media, 504 h): 100%
pest or weed control at 320 g/ha (MATIN [21]; Tripleurospermum inodorum, 504 h): 100%
pest or weed control at 320 g/ha (VIOTR [22]; Viola tricolor, 504 h): 100%
pest or weed control at 320 g/ha (ECHCG [24]; Echinochloa crus-galli, 504 h, read-out: Pre-emergence action against ECHCG (herbicidal activity)): 100%
pest or weed control at 320 g/ha (HORMU): 80%
